Measurements published in patent US20040043425A1, “Proteins, genes and their use for diagnosis and treatment of chronic asthma” (priority 2000, published 2004).

Assays:
[1] = system: CAF-25; assay: 2D electrophoresis fold change of CAF-25 in primary cultures of human airway myofibroblasts; assay type: cell-based; conditions: thrombin 20 units/ml
Protocol: (§1) dexamethasone at 1 μM (glucocorticoid).

[2] = system: CAF-18; assay: 2D electrophoresis fold change of CAF-18 in primary cultures of human airway myofibroblasts; assay type: cell-based; conditions: thrombin 20 units/ml
Protocol: as §1

[3] = system: CAF-12; assay: 2D electrophoresis fold change of CAF-12 in primary cultures of human airway myofibroblasts; assay type: cell-based; conditions: thrombin 20 units/ml, early
Protocol: as §1

[4] = system: CAF-24; assay: 2D electrophoresis fold change of CAF-24 in primary cultures of human airway myofibroblasts; assay type: cell-based; conditions: thrombin 20 units/ml, early
Protocol: as §1

[5] = system: CAF-20; assay: 2D electrophoresis fold change of CAF-20 in primary cultures of human airway myofibroblasts; assay type: cell-based; conditions: thrombin 20 units/ml, early
Protocol: as §1

[6] = system: CAF-3; assay: 2D electrophoresis fold change of CAF-3 in primary cultures of human airway myofibroblasts; assay type: cell-based; conditions: thrombin 20 units/ml
Protocol: as §1

[7] = system: CAF-29; assay: 2D electrophoresis fold change of CAF-29 in primary cultures of human airway myofibroblasts; assay type: cell-based; conditions: thrombin 20 units/ml
Protocol: as §1

[8] = system: CAF-1; conditions: thrombin 20 units/ml
Protocol: Using the following procedure, proteins in primary cultures of human airway myofibroblasts were separated by isoelectric focusing followed by SDS-PAGE and analyzed. Different cultures were used, infra, and two different time points at 1 hour (referred to as “early”) and 6 hours (referred to as “late”) were taken. Parts 6.1.1 to 6.1.14 (inclusive) of the procedure set forth below are hereby designated as the “Reference Protocol”.
Primary cultures of human airway myofibroblasts (Hall IP, Kotlikoff M, Am J Physiol January 1995; 268(1 Pt 1): L1-11, Use of cultured airway myocytes for study of airway smooth muscle; Hirst S J, Eur Respir J April 1996; 9(4): 808-20, Airway smooth muscle cell culture: application to studies of airway wall remodeling and phenotype plasticity in asthma.) were treated by one, or a successive combination of, the following:
thrombin at 20 units/ml (Panettieri R A Jr, Hall I P, Maki C S, Murray R K, Am J Respir Cell Mol Biol August 1995; 13(2):205-16, Alpha-Thrombin increases cytosolic calcium and induces human airway smooth muscle cell proliferation).
as §1
theophylline 100 μM (Billington C K, Joseph S K, Swan C, Scott M G, Jobson T M, Hall I P, Am J Physiol March 1999; 276(3 Pt 1):L412-9, Modulation of human airway smooth muscle proliferation by type 3 phosphodiesterase inhibition).
Using the protein expression database, matching protein features present in test primary cultures and in control primary cultures were compared.

[9] = system: CAF-13; assay: 2D electrophoresis fold change of CAF-13 in primary cultures of human airway myofibroblasts; assay type: cell-based; conditions: thrombin 20 units/ml
Protocol: as §1

[10] = system: CAF-15; assay: 2D electrophoresis fold change of CAF-15 in primary cultures of human airway myofibroblasts; assay type: cell-based; conditions: thrombin 20 units/ml
Protocol: as §1

[11] = system: CAF-22; assay: 2D electrophoresis fold change of CAF-22 in primary cultures of human airway myofibroblasts; assay type: cell-based; conditions: thrombin 20 units/ml, early
Protocol: as §1

[12] = system: CAF-5; assay: 2D electrophoresis fold change of CAF-5 in primary cultures of human airway myofibroblasts; assay type: cell-based; conditions: thrombin 20 units/ml
Protocol: as §1

[13] = system: CAF-33; assay: 2D electrophoresis fold change of CAF-33 in primary cultures of human airway myofibroblasts; assay type: cell-based; conditions: thrombin 20 units/ml, late
Protocol: as §1

[14] = system: CAF-2; assay: 2D electrophoresis fold change of CAF-2 in primary cultures of human airway myofibroblasts; assay type: cell-based; conditions: thrombin 20 units/ml
Protocol: as §1

[15] = system: CAF-35; assay: 2D electrophoresis fold change of CAF-35 in primary cultures of human airway myofibroblasts; assay type: cell-based; conditions: thrombin 20 units/ml, late
Protocol: as §1

[16] = system: CAF-19; assay: 2D electrophoresis fold change of CAF-19 in primary cultures of human airway myofibroblasts; assay type: cell-based; conditions: thrombin 20 units/ml, late
Protocol: as §1

[17] = system: CAF-21; assay: 2D electrophoresis fold change of CAF-21 in primary cultures of human airway myofibroblasts; assay type: cell-based; conditions: thrombin 20 units/ml
Protocol: as §1

[18] = system: CAF-34; assay: 2D electrophoresis fold change of CAF-34 in primary cultures of human airway myofibroblasts; assay type: cell-based; conditions: thrombin 20 units/ml
Protocol: as §1

C[C@@H]1C[C@H]2[C@@H]3CCC4=CC(=O)C=C[C@]4(C)[C@@]3(F)[C@@H](O)C[C@]2(C)[C@@]1(O)C(=O)CO [Dexamethasone, dexamethasone]
Fold change following 1 h thrombin and 1 h Dexamethasone relative to cells treated with thrombin alone ([1]; dexamethasone 1 μM, early): 5.245
Fold change following 1 h thrombin and 1 h Dexamethasone relative to cells treated with thrombin alone ([2]; dexamethasone 1 μM, early): 8.553
Fold change following 6 h thrombin and 7 h Dexamethasone relative to cells treated with thrombin alone ([2]; dexamethasone 1 μM, late): −15.966
Fold change following 1 h thrombin and 1 h Dexamethasone relative to cells treated with thrombin alone ([3]; dexamethasone 1 μM): 21.529
Fold change following 1 h thrombin and 1 h Dexamethasone relative to cells treated with thrombin alone ([4]; dexamethasone 1 μM): 75.754
Fold change following 1 h thrombin and 1 h Dexamethasone relative to cells treated with thrombin alone ([5]; dexamethasone 1 μM): 20.554
Fold change following 1 h thrombin and 1 h Dexamethasone relative to cells treated with thrombin alone ([6]; dexamethasone 1 μM, early): 2.438
Fold change following 6 h thrombin and 7 h Dexamethasone relative to cells treated with thrombin alone ([7]; dexamethasone 1 μM, late): −2.142
Fold change following 1 h thrombin and 1 h Dexamethasone relative to cells treated with thrombin alone ([8]; dexamethasone 1 μM, early): 4.713
Fold change following 1 h thrombin and 1 h Dexamethasone relative to cells treated with thrombin alone ([9]; dexamethasone 1 μM, early): 5.677
Fold change following 1 h thrombin and 1 h Dexamethasone relative to cells treated with thrombin alone ([10]; dexamethasone 1 μM, early): 4.619
Fold change following 6 h thrombin and 7 h Dexamethasone relative to cells treated with thrombin alone ([10]; dexamethasone 1 μM, late): −2.423
Fold change following 1 h thrombin and 1 h Dexamethasone relative to cells treated with thrombin alone ([11]; dexamethasone 1 μM): −2.909

Cn1c(=O)c2[nH]cnc2n(C)c1=O [theophylline]
Fold change following 1 h thrombin and 1 h theophylline relative to cells treated with thrombin alone ([1]; theophylline 100 μM, early): 10.216
Fold change following 6 h thrombin and 6 h theophylline relative to cells treated with thrombin alone ([1]; theophylline 100 μM, late): 19.320
Fold change following 1 h thrombin and 1 h theophylline relative to cells treated with thrombin alone ([2]; theophylline 100 μM, early): 26.692
Fold change following 6 h thrombin and 7 h theophylline relative to cells treated with thrombin alone ([2]; theophylline 100 μM, late): 2.839
Fold change following 1 h thrombin and 1 h theophylline relative to cells treated with thrombin alone ([3]; theophylline 100 μM): 39.410
Fold change following 1 h thrombin and 1 h theophylline relative to cells treated with thrombin alone ([12]; theophylline 100 μM, early): 2.306
Fold change following 1 h thrombin and 1 h theophylline relative to cells treated with thrombin alone ([4]; theophylline 100 μM): 19.892
Fold change following 1 h thrombin and 1 h theophylline relative to cells treated with thrombin alone ([5]; theophylline 100 μM): 29.086
Fold change following 1 h thrombin and 1 h theophylline relative to cells treated with thrombin alone ([8]; theophylline 100 μM, early): 3.518
Fold change following 6 h thrombin and 7 h theophylline relative to cells treated with thrombin alone ([8]; theophylline 100 μM, late): −2.122
Fold change following 6 h thrombin and 6 h theophylline relative to cells treated with thrombin alone ([13]; theophylline 100 μM): 2.031
Fold change following 1 h thrombin and 1 h theophylline relative to cells treated with thrombin alone ([14]; theophylline 100 μM, early): 4.912
Fold change following 6 h thrombin and 6 h theophylline relative to cells treated with thrombin alone ([15]; theophylline 100 μM): 2.182
Fold change following 1 h thrombin and 1 h theophylline relative to cells treated with thrombin alone ([9]; theophylline 100 μM, early): 4.288
Fold change following 6 h thrombin and 6 h theophylline relative to cells treated with thrombin alone ([16]; theophylline 100 μM): 2.800
Fold change following 1 h thrombin and 1 h theophylline relative to cells treated with thrombin alone ([10]; theophylline 100 μM, early): 16.824
Fold change following 6 h thrombin and 7 h theophylline relative to cells treated with thrombin alone ([10]; theophylline 100 μM, late): −2.077
Fold change following 1 h thrombin and 1 h theophylline relative to cells treated with thrombin alone ([11]; theophylline 100 μM): −2.096

thrombin
Fold change following 1 h thrombin, relative to untreated cells ([1]; early): −8.122
Fold change following 6 h thrombin, relative to untreated cells ([1]; late): −4.750
Fold change following 1 h thrombin, relative to untreated cells ([17]; early): −4.110
Fold change following 6 h thrombin, relative to untreated cells ([17]; late): 4.186
Fold change following 1 h thrombin, relative to untreated cells ([2]; early): −19.780
Fold change following 6 h thrombin, relative to untreated cells ([2]; late): 16.517
Fold change following 1 h thrombin, relative to untreated cells [3]: −51.041
Fold change following 1 h thrombin, relative to untreated cells ([12]; early): −3.486
Fold change following 6 h thrombin, relative to untreated cells ([12]; late): −2.846
Fold change following 1 h thrombin, relative to untreated cells ([18]; early): 2.741
Fold change following 6 h thrombin, relative to untreated cells ([18]; late): 5.005
Fold change following 1 h thrombin, relative to untreated cells [4]: −332.863
Fold change following 1 h thrombin, relative to untreated cells [5]: −16.512
Fold change following 1 h thrombin, relative to untreated cells ([6]; early): −2.976
Fold change following 6 h thrombin, relative to untreated cells ([6]; late): 2.120
Fold change following 1 h thrombin, relative to untreated cells ([7]; early): 2.597
Fold change following 6 h thrombin, relative to untreated cells ([7]; late): 2.169
Fold change following 1 h thrombin, relative to untreated cells ([8]; early): −4.393
Fold change following 6 h thrombin, relative to untreated cells ([8]; late): 2.463
Fold change following 6 h thrombin, relative to untreated cells [13]: −4.459
Fold change following 1 h thrombin, relative to untreated cells ([14]; early): 7.832
Fold change following 6 h thrombin, relative to untreated cells ([14]; late): 14.593
Fold change following 6 h thrombin, relative to untreated cells [15]: −3.705
Fold change following 1 h thrombin, relative to untreated cells ([9]; early): −2.425
Fold change following 6 h thrombin, relative to untreated cells ([9]; late): 3.292
Fold change following 6 h thrombin, relative to untreated cells [16]: −2.815
Fold change following 1 h thrombin, relative to untreated cells ([10]; early): −14.045
Fold change following 6 h thrombin, relative to untreated cells ([10]; late): 3.037
Fold change following 1 h thrombin, relative to untreated cells [11]: 1.733
